Measured values published in publication PMC9875641, “Ophthalmic Solution of Smart Supramolecular Peptides to Capture Semaphorin 4D against Diabetic Retinopathy” (Advanced Science, 2022).

Experiments:
OIR model = experiment: Oxygen-induced retinopathy (OIR) model, pathological retinal neovascularization; assay type: in vivo, mouse; settings: for reduction of pathological retinal neovascularization by eye drops plus anti-VEGF injection compared with anti-VEGF injection alone: isolectin B4, anti-VEGF antibody 2 µg intravitreal at P12, eye drops twice a day until P17, on average
Description: follows: 5’-[…]-3’, 5’- […]
OIR. OIR model was performed as previously described. The pups and their mothers […]
were exposed to 75% oxygen at 7-12 days after birth, and then exposed to indoor air […]
for another 5 days. At P17, the mice were anesthetized and sacrificed, and the retinas […]
Isolectin B4. Isolectin B4 staining for retinal blood vessel visualization is as […]
described above. After fixing the eyeball with 4% paraformaldehyde (overnight at 4 […]
degrees), the intact retina was peeled off using microscissors and micro tweezers.
After rupture of the membrane with 2% Triton X-100, the retina was placed in the […]
configured isolectin B4 staining (1:100) overnight at 4 degrees. Acquire multiple […]
overlapping (10-20% overlap) images using a fluorescence microscope and merge […]
them together in Adobe Photoshop to visualize the entire retina. Use ImageJ software to quantify the area of pathological neovascularization relative to the total retinal area. […]
(§1) Statistical analysis. Statistical analysis was conducted using Graphpad Prism 8.0 software. All data were expressed by mean ± SD. Unpaired two-tailed Student’s t-test (two groups) or one-way ANOVA (more than 2 groups) was used to analyze the statistical significances of the data. Person’s correlation analysis was conducted to […]

[1] = test system: in vitro BRB model (ARPE-19 layer and HUVEC layer)
pericytes = experiment: Transwell migration of pericytes induced by recombinant Sema4D; assay type: cell-based, mouse; settings: transwell assay, n = 3
STZ model = experiment: STZ-induced retinopathy model, retinal vascular leakage; assay type: in vivo, mouse; settings: for reduction of retinal vascular leakage by eye drops plus anti-VEGF injection compared with anti-VEGF injection alone: Evans blue, anti-VEGF antibody 2 µg intravitreal at third month, eye drops twice a day for 30 d, on average; for reduction of retinal vascular leakage by eye drops plus anti-VEGF injection compared with anti-VEGF injection alone / vascular leakage (Evans blue assay): n = 9; for diabetes-induced retinal acellular capillary formation: eye drops 10 µL per eye twice daily for 30 d, PDGFRb/collagen IV staining, n = 6
Description: follows: 5’-[…]-3’, 5’-
STZ. Eight-week-old male C57BL/6 mice were starved for 4 hours before each […]
injection of streptozotocin (STZ, Sigma, St. Louis, MO), and then injected with STZ […]
(50 mg/kg) for 5 consecutive days. Mice in the vehicle control group were […]
intraperitoneally injected with citrate buffer for 5 consecutive days. A blood glucose […]
meter (ONETOUCH, Johnson & Johnson, USA) was used to evaluate the fasting […]
blood glucose of the mice 7 days after the last injection of STZ. Mice with blood […]
glucose levels greater than or equal to 16.7 mM were considered successful in STZ […]
modeling. […]
Evans blue assay. Mice were intraperitoneally injected with Evans Blue dye (200 mg/kg) and circulated for 5 hours. The mice were perfused with PBS, and the eyes were fixed with 4% PFA at 4 degrees Celsius for 12 hours, and the retina was separated. Some retinas are tested for Evans Blue fluorescence using a fluorescence microscope. Adding formamide (70 μL/piece) to the rest of the retina and incubate overnight at 70°C to extract the […]. Detect the absorbance of formamide at 620/740 nm (background) with a microplate reader. Calculate the content of Evans blue in the retina from the standard curve, and then standardize it based on the weight of the retina and the content of Evans blue in the blood. […]
as §1

sSema 4D = target: T1, sSema 4D (Homo sapiens, UniProt Q92854); experiment: ELISA binding affinity of TPs and SSPs to sSema 4D (and BSA)
T1 construct: purchased Novoprotein Ltd. (Suzhou, China)
T1 sequence (Q92854 22-734 limits assumed): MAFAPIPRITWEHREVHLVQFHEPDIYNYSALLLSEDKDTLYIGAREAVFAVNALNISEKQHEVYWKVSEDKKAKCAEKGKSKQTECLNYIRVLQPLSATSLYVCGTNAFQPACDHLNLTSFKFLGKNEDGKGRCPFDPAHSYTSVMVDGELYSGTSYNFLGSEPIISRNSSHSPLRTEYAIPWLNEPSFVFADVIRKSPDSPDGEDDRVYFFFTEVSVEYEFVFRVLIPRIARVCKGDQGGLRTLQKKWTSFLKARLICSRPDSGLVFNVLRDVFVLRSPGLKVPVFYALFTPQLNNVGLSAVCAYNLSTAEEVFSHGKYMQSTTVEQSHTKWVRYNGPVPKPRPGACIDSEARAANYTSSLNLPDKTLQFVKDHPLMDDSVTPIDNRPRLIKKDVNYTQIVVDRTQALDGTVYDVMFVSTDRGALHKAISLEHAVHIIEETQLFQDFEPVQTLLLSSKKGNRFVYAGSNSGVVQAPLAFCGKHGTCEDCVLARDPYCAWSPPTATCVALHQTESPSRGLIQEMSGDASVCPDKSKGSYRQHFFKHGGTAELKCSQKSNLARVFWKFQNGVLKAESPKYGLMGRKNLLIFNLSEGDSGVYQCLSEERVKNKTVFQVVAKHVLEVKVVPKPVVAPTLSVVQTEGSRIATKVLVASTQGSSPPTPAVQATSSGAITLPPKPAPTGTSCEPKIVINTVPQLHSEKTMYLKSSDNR
Description: To carry out the library screening, we first labeled the sSema4D with fluorescein isothiocyanate isomer (FITC), as shown in Figure 2E. Next, ≈10^6 beads library was incubated with FITC‐labeled sSema4D for 6 hours. The beads were thoroughly washed with DMF, water and methanol. Finally, under the fluorescence microscope, the beads with […] to sSema4D or FITC‐labeled sSema4D through noncovalent bonding were identified in Figure 2F. We selected twelve strongest putative fluorescent beads by physical separation. Subsequently, the corresponding peptides were cleaved off with BrCN from beads and analyzed by automatic Edman sequencing. The structures and sequence of transformable peptides (TPs) were determined and summarized (Figure S2, Supporting Information). TP‐1 to TP‐12 were resynthesized into solid phase and purified by high performance liquid chromatography (HPLC). The binding affinity of TPs toward sSema 4D was measured by enzyme‐linked immunosorbent assay (ELISA) and surface plasmon resonance imaging (SPRi). […] TP‐2 and TP‐7 were selected as the candidate TP binding sSema 4D to construct SSP. Subsequent SSP monomers (SSP‐1, sequence: C16‐FFVLK‐KQKRPRH; SSP‐2 C16‐FFVLK‐KNKAAKG) were synthesized and characterized by HPLC and Matrix‐assisted laser desorption/ionization time‐of‐flight mass spectrometry (MALDI‐TOF‐MS).

endothelial cells = experiment: Wound-healing and transwell migration of endothelial cells induced by recombinant Sema4D; assay type: cell-based, mouse; settings: wound-healing and transwell assays, n = 3; effect equal to anti-Sema4D antibody
[2] = eye drops 5 µL per eye twice daily P12 to P17, n = 8, equal to intraocular anti-Sema4D antibody
[3] = eye drops 5 µL per eye twice daily P12 to P17, vs littermate controls, n = 7
[4] = intravitreal injection at P12, retinas at P17, n = 8, effect equal to Sema4D antibody
[5] = intravitreal injection at P12, retinas at P17, vs littermate controls, n = 6
[6] = eye drops 10 µL per eye twice daily for 30 d after third month since diabetes induction, equal to intraocular anti-Sema4D antibody
[7] = intravitreal injection at third month since diabetes induction, retinas at fourth month, similar to anti-Sema4D antibody

Substance | pathological retinal vascular neovascularization (isolectin B4 staining) (OIR model; [2]) | numbers of preretinal neovascular cells (OIR model; [3]) | pathological retinal vascular neovascularization (isolectin B4 staining) (OIR model; [4]) | numbers of preretinal neovascular cells (OIR model; [5]) | reduction of pathological retinal neovascularization by eye drops plus anti-VEGF injection compared with anti-VEGF injection alone (OIR model) | transfer across the in vitro BRB [1] | recombinant Sema4D protein-induced pericyte migration (pericytes) | reduction of retinal vascular leakage by eye drops plus anti-VEGF injection compared with anti-VEGF injection alone (STZ model) | diabetes-induced retinal acellular capillary formation (STZ model) | vascular leakage (Evans blue assay) (STZ model; [6]) | vascular leakage (Evans blue assay) (STZ model; [7]) | binding affinity with sSema4D on ELISA, compared with TPs (sSema 4D) | recombinant Sema4D protein-induced endothelial cell migration (endothelial cells)
C16‐FFVLK‐KQKRPRH [SSP-1, smart supramolecular peptide, C16‐FFVLK‐KQKRPRH, self-assembling, captures sSema4D] | decreased | significantly decreased | decreased | significantly reduced | 25.72% | effectively transferred across the BRB | reduced | 20.21% | ameliorated | significantly decreased | significantly decreased | higher binding affinity compared with TPs | inhibited
C16‐FFVLK‐KNKAAKG [SSP-2, smart supramolecular peptide, C16‐FFVLK‐KNKAAKG, self-assembling, captures sSema4D] | decreased | significantly decreased | decreased | significantly reduced | 22.68% | effectively transferred across the BRB | reduced | 15.49% | ameliorated | significantly decreased | significantly decreased | higher binding affinity compared with TPs | inhibited
